Measurements published in US20230181661A1, “MUSHROOM-CONTAINING CHINESE MEDICINE COMPOUND COMPOSITION FOR KELOID SCAR TISSUE AND APPLICATION THEREOF” (ASIA UNIVERSITY, priority 2021, published 2023).

System: KFS cells
Assay: Cell metabolic activity assay (MTT assay)
Type: cell-based
Conditions: 6.25 to 100 micromolar concentration
Procedure: KFS cells were obtained from the Biosource Collection and Research Center (BCRC) of the Food Industry Research and Development Institute (Hsinchu, Taiwan). KFS cells were cultured in Dulbecco's modified eagle medium (DMEM) containing 10% FBS, 1.5 g/L sodium bicarbonate, 4 mM L-glutamine, 4.5 g/L glucose, 100 units/mL penicillin G, and 100 μg/mL streptomycin sulfate. All cells were incubated in a humidified environment with 5% CO2 and 37° C. The medium was refreshed every 2 days. KFS cells (2×10^4 cells/well) were seeded in 96-well plates overnight. KFS cells were exposed to different concentrations of a test drug in 100 μL of medium (for example, combination of 10 Chinese medicine ingredients). After 24 hours treatment, 10 μL of 5 mg/mL MTT (3-(4,5-dimethylthiazol-2-yl)-2,5-diphenyltetrazolium bromide) was added to each well. After incubation for 4 hours, cells were washed twice with 1×PBS. Next, 200 μL of dimethyl sulfoxide (DMSO) was added to each well. An absorbance value at 570 nm was determined for each well by using 650 nm as a reference wavelength. Compared with a control group (untreated with reagents), the absorbance may be correlated with the percentage of active cells. The cell metabolic activity rate is calculated as follows: Cell metabolic activity (%)=OD (treatment)/OD (control)×100%.

| SMILES | growth of keloid fibroblasts |
| --- | --- |
| COc1cc(/C=C/C(=O)CC(=O)/C=C/c2ccc(O)c(OC)c2)ccc1O [Curcumin] | inhibit the growth |
| Oc1ccc(C=Cc2cc(O)cc(O)c2)cc1 [Resveratrol] | inhibit the growth |
